These results are taken from a melting point compilation (Tetko et al.).

Take `O=C(OCCc1ccc(CCOC(=O)c2ccccc2)cc1)c1ccccc1`: the melting point (in general, the temperature of the solid-liquid transition) turned out to be 137 °C.
`CN1C(=O)NC(=O)C(C)(C2=CCCCC2)C1=O` (stereo unspecified) registered a melting point of 146 °C.
As for `FC(F)(F)c1ccc(-c2nc(CCl)cs2)cc1`, the melting point fell in the range of 80 to 85 °C.
Then `Cc1ccc(Cl)c([N+](=O)[O-])c1`, with 7 °C.
For the compound `Cc1c(Cl)cc(-c2ccc(=O)[nH]n2)cc1Cl`, the melting point amounted to 252 °C.
`Cc1cccc(C(N)=O)c1C` registered a melting point of 157 °C.
The compound `CCCCCC(C)CO` (stereo unspecified) gave a melting point of -112 °C.
Then `CC(=O)c1ccsc1`, with 60 °C; and `CC(=O)Oc1cccc([N+](=O)[O-])c1`, with 54 °C; and `O=C1NN=C(C(F)(F)F)C1=NNc1ccccc1C(=O)O`, with 274 °C.
`O=C1CCSc2ccc(Cl)cc21`: the melting point lay within 64 to 65 °C.
In the case of `NC(=O)N(CCO)N=Cc1ccc([N+](=O)[O-])o1`, the melting point stood at 214 °C.
The compound `COc1cc2c(cc1OC)C(c1ccccc1Cl)N(C(C)=O)CC2` (stereo unspecified) yielded a melting point of 186 to 188 °C.
In turn, `O=C(O)c1c(F)c(Cl)c(F)c(Cl)c1F` came in with a melting point of 142 to 143 °C.
As for `CC(C)(C)NC(=O)C(C(F)(F)F)C(F)(F)F`, the melting point came out at 201 °C.
`CCOc1nc(NC)nc(NC(=O)NS(=O)(=O)c2ccccc2C(=O)OC)n1`: the melting point was 194 °C.
`Cc1cccc2c(O)cc(C(F)(F)F)nc12`: the melting point lay in the range of 128 to 131 °C.
Then `c1ccc(P(C2CCCCC2)C2CCCCC2)cc1`, with 59.5 °C; and `NC1c2ccccc2CC1O` (stereo unspecified), with 117 to 121 °C.
Then `CCCOC(=O)c1ccc(OC(=O)c2ccc(C(=O)Oc3ccc(C(=O)OCCC)cc3)cc2)cc1`, with 129 to 205 °C; and `O=C1OC2(CCCCC2)OC1c1ccccc1` (stereo unspecified), with 87 °C.
Then `O=C(O)c1cc(Cl)c(Cl)c(Cl)c1Cl`, with 194 °C; and `CC12CCC(C(=CC(=O)O)C1=O)C2(C)C` (stereo unspecified), with 106 °C.
`CSc1nn2c(=O)c(C)nnc2s1` had a melting point of 196 °C.
In turn, `O=C(c1ccccc1)c1nn(-c2ccccc2)c(-c2ccc([N+](=O)[O-])cc2)c1S(=O)(=O)c1ccccc1` showed a melting point of 116 °C.
The value for `CCc1ccc(C(c2ccc(C(c3ccc(CC)o3)c3ccc(CC)o3)cc2)c2ccc(CC)o2)o1` was 81 °C; that for `CC(C)(O)C#CC(C)(C)O` was 95 °C.
Then `Nc1ccc(O)cc1C(=O)O`, with 233 to 234 °C; and `CCO[Si](Cl)(Cl)Cl`, with -135 °C.
Consider `CN(C(=S)Cl)c1ccccc1`, for which the melting point was 31 to 34 °C.
The value for `Nc1c(Br)cc(Br)cc1C=O` was 136 to 139 °C.
The value for `C=C1C(=O)C23C(OC)CC4C5(C)CCCC4(COC5)C2C(OC(C)=O)CC1C3O` (stereo unspecified) was 183 °C; that for `O=Cc1ccc2oc3ccccc3c2c1` was 74 °C.
`CC(=O)OCC(=O)C1(O)CCC2C3CCC4=CC(=O)CCC4(C)C3C(=O)CC21C` (stereo unspecified) registered a melting point of 222 °C.
Then `NC(=O)/C(=C\c1ccc(F)cc1)c1nc2ccccc2s1`, with 178 °C.
In turn, `Cn1nc(CCl)cc1-c1ccccc1` showed a melting point of 59 to 61 °C.
Turning to `Cc1ccccc1NC(=O)c1cnc(C(C)(C)C)c(Cl)n1`, the melting point came out at 115 °C.
Then `Nc1cc(N)c(/C=C/c2ccccc2)cc1/C=C/c1ccccc1`, with 201 °C; and `Nc1ccc(OC(F)(F)F)c(Cl)c1`, with 30 °C.
The value for `CCOP(=O)(OCC)Oc1c2cc(C(C)(C)C)cc1Cc1cc(C(C)(C)C)cc(c1O)Cc1cc(C(C)(C)C)cc(c1OP(=O)(OCC)OCC)Cc1cc(C(C)(C)C)cc(c1O)C2` was 203 to 205 °C; that for `COc1ccc(/N=N/c2sc(/C(C#N)=N/Nc3ccc(F)cc3)nc2C)cc1` was 214 °C; that for `OCc1ccc(F)cc1Cl` was 44.5 °C.
In turn, `Cc1cc(C)c(OC(=O)C(F)(F)F)cc1OC(=O)C(F)(F)F` returned a melting point of 121 °C.
`CC(CC(=O)O)c1ccc(C(=O)O)cc1` (stereo unspecified): the melting point fell in the range of 227 to 229 °C.
The value for `CCOP(=S)(Oc1ccc(C#N)cc1)c1ccccc1` (stereo unspecified) was 83 °C; that for `C/C(=N/NC(N)=O)C1=CC2(C)CCC1C2(C)C` (stereo unspecified) was 218 °C; that for `C/C=C/c1ccc(O)c(OC)c1` was 33.5 °C.
`CC(C)Cc1ccc(C(=O)C=Cc2cccc([N+](=O)[O-])c2)cc1`: the melting point lay in the range of 104 to 107 °C.
Then `O=C=Nc1ccc(CCl)cc1`, with 33 °C; and `O=C(Cl)c1csc(-c2ccc3c(c2)CCO3)n1`, with 133 to 135 °C.
Compound `Cc1nc(-c2cccc(S(=O)(=O)Cl)c2)cs1` came in with a melting point of 116 to 118 °C.
Consider `CCCCCCCCCCC#N`, for which the melting point is -6 °C.
The value for `CC1=CC=CC2(C)Cc3ccccc3C(=O)N12` (stereo unspecified) was 177 °C; that for `O=C(O)CSCSCC(=O)O` was 125 to 128 °C; that for `NC(=O)Nc1ccc(Br)cc1` was 226 °C.
On to `OCc1cc(-c2cccs2)on1`, for which the melting point lay within 62 to 64 °C.
Then `Cn1ccc(-c2cccc(C(=O)Oc3c(F)c(F)c(F)c(F)c3F)c2)n1`, with 126 to 127 °C.
Then `O=C(O)C=C(Br)C(=O)O`, with 184 °C; and `C/C=C/C1Nn2c(nnc2-c2ccc(OC)cc2)S1` (stereo unspecified), with 80 to 82 °C.
The value for `CCC(=O)c1ccc[nH]1` was 50 °C; that for `N#CCc1csc2ccc(Cl)cc12` was 134 °C; that for `O=C(Cl)c1ccc2noc(-c3ccc(Cl)cc3)c2c1` was 180 °C.
In the case of `O=[N+]([O-])c1ccc(-c2ccc(NNc3ccccc3)cc2)cc1`, the melting point turned out to be 165 °C.
Then `Cc1nc2ccccc2n1CCCC(=O)O`, with 234 to 238 °C; and `O=C(O)c1sc2sccc2c1Cl`, with 252 to 258 °C; and `O=C(CBr)c1ccco1`, with 34 °C.
Then `CCc1oc2ccccc2c1C(=O)c1cc(Br)c(O)c(Br)c1`, with 151 °C; and `CCNCC(O)c1cccc(O)c1` (stereo unspecified), with 148 °C; and `COc1cc(C=C(C)[N+](=O)[O-])cc(OC)c1`, with 87 to 89 °C.
With `CC(C)(C)C(=O)Nc1ccncc1C(=O)O`, the melting point was in the range of 250 to 254 °C.
Then `O=C1C(=Cc2ccccc2)SC(=S)N1CN1CCCCC1`, with 114 °C.
For `Cc1cc(C(F)(F)F)c2c(N)c(C#N)sc2n1`, the melting point is 182 to 184 °C.
The value for `CC(C)(C)OC(=O)N1CCN(c2ccc(C(=O)O)cn2)CC1` was 298 to 300 °C; that for `Cc1cccc(N2C(=O)C3ON=C(C(=O)c4ccco4)C3C2=O)c1` (stereo unspecified) was 129 °C.
The value for `OCCC(F)(F)C(F)(F)C(F)(F)C(F)(F)C(F)(F)C(F)(F)C(F)(F)C(F)(F)F` was 46.2 °C.
Regarding `OCc1cc(C(O)CNCCCCCCOCCCCc2ccccc2)ccc1O` (stereo unspecified), the melting point came to 75.8 °C.
